Data on 71 compounds can be found in PubChem BioAssay AID179 (DTP/NCI, 2004).

Active and inactive are the calls of the source.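 How the source made its calls: active means compounds giving half or more protection of infected cells from virus-caused growth loss, again on retest; inactive means the rest.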 Where a SMILES comes first, the peptide text is derived from it. The star is where a group is joined. Cbz = O=C(OCc1ccccc1)*

For the assay, the system named is CEM cells HIV-1 protection, formazan growth assay. Kind of assay: NCI AIDS Antiviral Assay. Conditions: for IC50: measured here: growth of uninfected CEM cells. In a few lines: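 Steps: treat uninfected and HIV-1-infected human CEM cells at five drug levels; quantify growth by soluble formazan; retest any compound reaching 50% protection; classify actives from the retest.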

A word on the EC50: it is the midpoint of the concentration-response curve. For orientation: IC50 means the concentration at which inhibition is half-maximal. A high value points to weaker potency. `C=C1[C@@H]2CCC(C)(C)[C@H]1CCC(=O)[C@@H]2C(=O)OC`: the EC50 is more than 269 µM and the IC50 was 251 µM.

As for `COc1ccc(N2C(=O)[C@@H]3[C@H](C2=O)c2[nH]c4ccccc4c2C2CCC(C(C)(C)C)C[C@@H]23)cc1` (stereo partly drawn), the 50% effective concentration (EC50) is more than 28.2 µM and the IC50 was more than 28.2 µM. For `CCOC(=O)/C(=C(/N)C1OC(COC(c2ccccc2)(c2ccccc2)c2ccccc2)C2OC(C)(C)OC12)C1CC(=O)N(C)C1=O` (stereo not drawn), the EC50 was more than 200 µM and the IC50 is 11.7 µM.

As to `CCOC(=O)c1c2c(n3ccc(C)cc13)C(=O)C(c1ccc([N+](=O)[O-])cc1)S2` (stereo not drawn), the outcome was inactive. As to `O=C(O)CCN(CCC(=O)O)CCN(CCC(=O)O)CCC(=O)O`, the EC50 was more than 589 µM and the IC50 is more than 589 µM. In the case of `CCOC(=O)CCC(NC(=O)OCc1ccccc1)C(=O)NC(CC(=O)OC)C(=O)NC(CC(=O)OC)C(=O)NC(CCC(=O)OCC)C(=O)OCC` (stereo not drawn) (Cbz-E(OEt)D(OMe)D(OMe)E(OEt)-OEt; configuration not given here), the EC50 is more than 50.1 µM and the IC50 was more than 50.1 µM. For the compound `N#Cc1cscc1C#N`, the EC50 is more than 200 µM and the IC50 is more than 200 µM. As to `CCCCCCCCCCCCCCCCCCOP(=O)([O-])OC1CC[N+](C)(C)CC1`, the EC50 was more than 204 µM and the IC50 is 1.91 µM. The corresponding values for `O=C(CCC(=O)CC(O)(C(F)(F)F)C(F)(F)F)CC(O)(C(F)(F)F)C(F)(F)F` are more than 200 µM and 47.9 µM. As to `CC(C)C1N(N2C(=O)CS(=O)(=O)C2C(C)C)C(=O)CS1(=O)=O` (stereo not drawn), the EC50 is more than 200 µM and the IC50 was more than 200 µM. For `CC(C)(SSC(C)(C)C1NC(=O)NC1=O)C1NC(=O)NC1=O` (stereo not drawn), the EC50 is more than 200 µM and the IC50 came out at 120 µM. The corresponding values for `CC1=N/C(=C\c2ccccc2Br)C(=O)O1` are more than 97.7 µM and more than 97.7 µM. The corresponding values for `NC1=NN(c2ccccc2)C2(O)c3ccncc3C3=NN(c4ccccc4)C(=O)C132` (stereo not drawn) are more than 200 µM and more than 200 µM.

As for `CC/C(CC(=O)CCC(=O)Nc1ccc(C)c(C)c1)=N\NC(=O)C(N)=O`, the result was inactive. For the compound `N#C/C(=C\c1cc(O)c(O)c(O)c1)C(=O)NCCCNC(=O)/C(C#N)=C/c1cc(O)c(O)c(O)c1`, the EC50 is more than 132 µM and the IC50 amounted to 21.4 µM. The corresponding values for `Cc1ccccc1-n1c(SCC(=O)NC(=O)Nc2cccc(Cl)c2)nc2c(Br)cc(Br)cc2c1=O` are more than 200 µM and more than 200 µM.

As to `Nc1ccc2c3c1cccc3c(=O)n1c3ccc(Cc4ccc5c(c4)nc4c6ccc(N)c7cccc(c(=O)n54)c76)cc3nc21`, the EC50 is more than 100 µM. In the case of `Oc1ccc(Cl)cc1/C=N/Nc1nnc(N/N=C/c2cc(Cl)ccc2O)c2ccccc12`, the EC50 is more than 200 µM and the IC50 worked out at 1 µM. The corresponding values for `O=Nc1c(O)cc(Nc2cccnc2)c2ccccc12` are 102 µM and 182 µM.

Regarding `O=C(CP(=O)(O)O)c1cccs1`, the EC50 was more than 1200 µM and the IC50 is more than 1200 µM. For `CCOC(=O)c1nc2cc(C(F)(F)F)ccc2nc1Nc1ccc(OC)c(OC)c1`, the result was inactive. Take `CCOC(=O)/C(F)=C/c1ccc([N+](=O)[O-])cc1`: the EC50 is more than 41.7 µM and the IC50 is more than 41.7 µM. For the compound `C[C@H](c1ccccc1)N1C(=O)[C@@H](OCc2ccccc2)[C@H]1[C@H](COC(=O)COCc1ccccc1)OCc1ccccc1`, the EC50 was more than 200 µM and the IC50 was more than 200 µM. For `CCOC(=O)/C(=C\c1cn(C(C)=O)c2ccccc12)P(C)(=O)OCC` (stereo not drawn), the EC50 is more than 200 µM and the half-maximal inhibitory concentration (IC50) was 55 µM. Taken in the same sequence, the figures for `C=C(Nc1ccc(OC)cc1OC)C(=O)Cc1cccc[n+]1[O-]` were more than 794 µM and more than 794 µM. As to `CSC(=S)OC1C(CO[Si](C)(C)C(C)(C)C)OC2OC(C)(C)OC21` (stereo not drawn), the result was inactive. `O=[N+]([O-])CCc1cccc([N+](=O)[O-])c1`: the EC50 is more than 1260 µM and the IC50 is more than 1260 µM. `CCCCCCCCCCCCOC1C(COCCN2CCCC2)OC2OC(C)(C)OC21` (stereo not drawn): the EC50 was more than 200 µM and the IC50 was determined as 3.02 µM. Taken in the same sequence, the figures for `CC(C)[N+](C)(C)CC(O)COc1cccc2ccccc12` (stereo not drawn) were more than 200 µM and more than 200 µM.

As for `CC1(C)CC2C(=O)c3ccccc3NC2c2ccccc21` (stereo not drawn), the EC50 was more than 2 µM and the IC50 was found to be 0.269 µM. Taken in the same sequence, the figures for `NC12CCC(N)(c3ccccc31)c1ccccc12` were more than 200 µM and more than 200 µM. The corresponding values for `O=[N+]([O-])c1ccccc1SCc1ccccc1` are more than 55 µM and 50.1 µM. On to `C[C@]12CCC3[C@@H](CC[C@@H]4c5nonc5CC[C@]34C)C1CCC2=O` (stereo partly drawn), for which the EC50 is more than 57.5 µM and the IC50 is more than 57.5 µM. For the compound `O=C(NC(=O)c1cn(CCN2CCNCC2)c(=O)[nH]c1=O)OCc1ccccc1`, the result was inactive. Take `COc1ccc(/C=C2\SC(=S)N(/C=C3\C(=O)N(c4ccccc4)N=C3C)C2=O)cc1OC`: the EC50 is more than 200 µM and the IC50 came out at 28.2 µM. The corresponding values for `CC1(C)N=C(C(N)=O)c2ncn(N)c2N1` are more than 200 µM and more than 200 µM. The corresponding values for `Cc1ccc(C2SCC(=O)N2NC(=O)c2ccncc2)s1` (stereo not drawn) are more than 200 µM and more than 200 µM. Regarding `O=C(O)c1oc2cccc3c2c1CCC3`, the result was inactive. `COc1c(C)c(C/C=C(\C)CC/C=C(\C)CC/C=C(\C)CC/C=C(\C)CCC=C(C)C)c(OC)c(OC)c1OC`: the EC50 is more than 200 µM and the IC50 worked out at 31.6 µM.

As to `CC12C(=C(C#N)C(=N)N1c1ccc(Cl)c(Cl)c1)C=C(O)CC2SCCS(=O)(=O)O` (stereo not drawn), the EC50 is 33.1 µM and the IC50 stood at 67.6 µM. Consider `C[C@@]1(O)C2CC3CC1(c1ccccc1)CC(/C3=N/O)/C2=N\O` (stereo partly drawn), for which the EC50 was more than 200 µM and the IC50 was more than 200 µM. On to `Cc1nc(C)c(C(=O)Nc2cccc3c2C(=O)NC3=O)cc1C(=O)Nc1cccc2c1C(=O)NC2=O`, for which the EC50 was more than 195 µM and the IC50 is more than 195 µM. For `O=C1NC(=O)/C(=C/c2ccc(F)cc2)N1`, the EC50 is more than 200 µM and the IC50 came to 191 µM. The corresponding values for `CCOP(=O)(CCCC(O)CNc1nc(N)nc(Cl)c1N=Nc1ccc(Cl)cc1)OCC` (stereo not drawn) are more than 200 µM and 5.75 µM. Taken in the same sequence, the figures for `COC1CCC(OS(C)(=O)=O)CO1` (stereo not drawn) were more than 200 µM and 33.9 µM.

As for `O=c1cc(CNC2CCCC2)[nH]c(=O)[nH]1`, the outcome was inactive. For the compound `CCC(C(=O)c1ccc(OC)c(OC)c1)N(C(=O)C(F)(F)F)C(C)c1ccccc1` (stereo not drawn), the EC50 was more than 200 µM and the IC50 was more than 200 µM. On to `CC1(C)CC(=O)C(=[N+]=[N-])C(=O)C1`, for which the EC50 is more than 200 µM and the IC50 is more than 200 µM. In the case of `CC12CCC(=O)N1c1cnccc1N2` (stereo not drawn), the EC50 is more than 200 µM and the IC50 was more than 200 µM. With `Cc1ccc(OCC2OC(n3cnc4nc(Cl)nc(Cl)c43)CC2Oc2ccc(C)cc2)cc1` (stereo not drawn), the EC50 was more than 200 µM and the IC50 worked out at 1.48 µM. The corresponding values for `O=C(CC1OC(O)C(Cl)=C1Cl)c1cccnc1` (stereo not drawn) are 24.5 µM and 501 µM. Consider `CCOC(=O)c1nc2cc(N3CCOCC3)c(F)cc2[nH]c1=O`, for which the EC50 is more than 200 µM and the IC50 is 141 µM. On to `CCN(CC)C(=S)SCn1nc(Cl)c2ccc([N+](=O)[O-])cc21`, for which the EC50 was more than 69.2 µM and the IC50 came to 40.7 µM.

`Cc1cc(N(CCC#N)CCC#N)ccc1N=Nc1cccc(C(=O)O)c1`: the EC50 is more than 72.4 µM and the IC50 was determined as 57.5 µM. Taken in the same sequence, the figures for `CN(C)C1C(=O)C(C(N)=O)=C(O)C2(O)C(=O)C3=C(O)c4c(O)cccc4C(C)(O)C3C(O)C12` (stereo not drawn) were more than 263 µM and 95.5 µM. The corresponding values for `Cc1ccc2c(/C=C/c3ccc(N(C)C)cc3)ccc(C(C)C)cc1-2` are more than 200 µM and 151 µM. The corresponding values for `O=C(O)CN(CCOCCOCCN(CC(=O)O)CC(=O)O)CC(=O)O` are more than 95.5 µM and 3.02 µM. As for `S=c1ncnc2cc3[nH][nH]cc3cc12`, the EC50 is more than 67.6 µM and the IC50 was 49 µM. Taken in the same sequence, the figures for `CN(CCO)CC(=O)CC(O)(C(F)(F)F)C(F)(F)F` were more than 200 µM and 39.8 µM. Taken in the same sequence, the figures for `O=[N+]([O-])c1ccc(NC(=S)N=Nc2c(O)[nH]c3ccccc23)cc1` were more than 200 µM and 15.5 µM.

Take `CCOC(=O)/C(=C/c1ccc(F)cc1)C(=O)c1ccccc1`: the EC50 was more than 17.4 µM and the IC50 was more than 17.4 µM. In the case of `O=C1Sc2ccccc2C(=O)N2CS(=O)CC12` (stereo not drawn), the EC50 was more than 100 µM and the IC50 is more than 100 µM. For the compound `C[C@]12CCC3[C@@H](CC[C@@H]4c5nonc5CC[C@]34C)C1CC[C@@H]2O` (stereo partly drawn), the EC50 was more than 214 µM and the IC50 was more than 214 µM. Take `Cc1ccc2c(=O)c3ccccc3sc2c1`: the EC50 was more than 200 µM and the IC50 is more than 200 µM. As to `CN(C)CCCNc1cc[n+](C)c2cccc([N+](=O)[O-])c12`, the EC50 was more than 200 µM and the IC50 amounted to 10.5 µM. The corresponding values for `O=C1OC(OCC#CCOC2OC(=O)C(Cl)=C2Cl)C(Cl)=C1Cl` (stereo not drawn) are more than 200 µM and 1.7 µM.

In the case of `Cc1ccc(S(=O)(=O)NC2C(=O)c3ccccc3C(=O)C2n2cnc3ccccc32)cc1` (stereo not drawn), the EC50 was more than 200 µM and the IC50 came to 42.7 µM.

`COc1nc(NC2OCC(OC(C)=O)C(OC(C)=O)C2OC(C)=O)c(C(=O)CCl)c(=O)n1C` (stereo not drawn): the outcome was inactive. On to `O=C(O)C1C2C=CC(C2)C1c1c2ccc(=O)c(O)c-2oc2c(O)c(O)ccc12` (stereo not drawn), for which the EC50 was more than 200 µM and the IC50 came to 26.3 µM. Regarding `CC(C)C(OC(=O)c1ccc(NCC2=CC(=O)C=CC2=O)cc1)C(C)C`, the EC50 was more than 20 µM and the IC50 was 9.12 µM. The corresponding values for `COC(=O)c1c([N+](=O)[O-])ncn1[C@H]1OC[C@@H](OC(C)=O)[C@@H](OC(C)=O)[C@@H]1OC(C)=O` are more than 200 µM and more than 200 µM.
